Experiments:
Assay type in all cases: cell-based, Human
[1] = system: PC-9; assay: CCK8 cell viability assay, PC-9; details: for Cell viability (100%): PC9, 20 µM, 48 h, CCK8, control = 100%; for IC50: PC9, 48 h, CCK8, mean ± SE
Description: (§1) At first, CCK8 assay was carried out to evaluate the anti-proliferative activity of dolutegravir-1,2,3-triazole derivatives against different cancer cell lines. The results of cell viability of three lung cancer cell lines A549, PC-9 and H460 in the presence of compounds 9 and 10 are summarized in Table 2. Cells were treated with different compounds at the concentration of 20 µM for 48 h. […] Human lung cancer cell lines A549, PC-9 and H460 were all obtained from ATCC. Cells were cultured in DMEM or RPMI 1640 medium containing 10% FBS and 1% penicillin/streptomycin at 37 °C with a 5% CO2-humidified atmosphere. CCK8 assay was used to measure cell viability. Cells with a density of 1 × 10^4 cells/well were seeded on the 96-well plates. After adhesion, cells were treated with different diluted compounds or vehicle control DMSO and continue cultured for 48 h. Then, CCK8 reagent was added for one hour incubation at 37 °C with 5% of CO2. Absorbance was measured using a microplate spectrophotometer (Thermo) at 450 nm. The ratio of cell viability of control was taken as 100%. […] Then IC50 of the compounds were investigated using the prism statistical software.

[2] = system: H460; assay: CCK8 cell viability assay, H460; details: for Cell viability (100%): H460, 20 µM, 48 h, CCK8, control = 100%; for IC50: H460, 48 h, CCK8, mean ± SE
Description: as §1

[3] = system: PC-9; assay: Plate clone formation assay, PC-9; details: PC9, 0, 2, 4, 8, 16 and 32 µM, 48 h
Description: The plate clone formation experiments were also carried outto further confirm the effects of dolutegravir derivatives on cell proliferation. Compounds 9e and 9p with different concentrations (0, 2, 4, 8, 16 and 32 µM) were added to the cells.
PC-9 and H460 cells were seeded into 6-well plates at a density of 100–500 cells/well. After 10 days culture, cells were added with 9e or 9p at different concentrations (0, 2 µM, 4 µM, 8 µM, 16 µM, 32 µM) for 48 h. Then cells were fixed by 4% paraformaldehyde and stained by Giemsa dye. An optical microscope was used to photograph cells and count the clone numbers.

[4] = system: H460; assay: Apoptosis assay (Annexin V-FITC/PI flow cytometry), H460; details: 48 h
Description: Further, the effects of 9e and 9p on the apoptosis of tumor cells were studied to get details of the suppression of cell proliferation caused by these compounds. PC-9 and H460 cells treated with different concentrations of 9e or 9p were stained with Annexin V-FITC and PI, and the numbers of apoptosis cells were analyzed by the flow cytometry.
PC-9 and H460 cells were cultured in 6-well plates with a density of 3 × 10^5 cells/well. Different concentrations of 9e or 9p were added to cells for 48 h respectively. The concentrations were 0, 2, 4, and 8 µM for PC-9 cells and 0, 4, 8 and 16 µM for H460 cells. After treatment, Annexin V-FITC Apoptosis Detection Kit was used to determine the apoptotic ratio and FlowJo software v10 was used to analyze of the results.

[5] = system: PC-9; assay: Cell cycle assay (PI staining, flow cytometry), PC-9; details: 48 h
Description: (§2) Cancer cell lines PC-9 and H460 were then treated for 48 h with 9e or 9p at different concentrations to investigate the effects of these compounds on regulating the cell cycle. Cell cycle distributions were analyzed using the flow cytometry technique.
(§3) PC-9 and H460 cells were cultured in 6-well plates with a density of 3 × 10^5 cells/well. Cells were treated with different concentrations (0, 4, and 8 µM for PC-9 cells and H460 cells) of 9e or 9p for 48 h respectively. Then the cell cycle was determined by PI staining with the flow cytometer.

[6] = system: H460; assay: Cell cycle assay (PI staining, flow cytometry), H460; details: H460, 48 h, 4 and 8 µM
Description: as §2, §3

[7] = system: PC-9; assay: Cellular ROS measurement (DCFH-DA), PC-9; details: PC-9, 5 µM and 10 µM, 24 h, DCFH-DA staining
Description: Reactive oxygen species could induce cell death and suppress cell growth and proliferation. To assess the role of compounds 9e and 9p in ROS generation, different cancer cell lines were treated with 9e or 9p for 24 h. DCFDA was used to stain cells and ROS was detected with fluorescent microscope.
PC-9 and H460 cells were cultured in 96-well plates in a density of 5 × 10^3 cells/well. Different concentrations (0, 5 and 10 µM) of 9e or 9p were added to cells respectively for 24 h. After treatment, cells were stimulated with 10 µM DCFH-DA for 30 min at 37 °C, then observed and photographed using a fluorescent microscope.

[8] = system: Caspase3; assay: Western blot of Caspase3 in PC-9 cells; details: PC-9, 0, 2, 4, 8 µM, 48 h
Description: (§4) To determine the role of compounds 9e and 9p on regulating the development of cell proliferation, expressions of key proteins which were involved in cell growth progresses such as autophagy, apoptosis, cell cycle and DNA damage were examined. Ubiquitin like molecule light chain 3 (LC3) is a key marker of autophagy. […] Caspase3, which is one of the key proteins in regulating apoptosis, however, was not changed in tumor cells after treated with 9e or 9p. Cell cycle regulation proteins such as CyclinD, CyclinE or β-catenin were also not affected when PC-9 was treated with 9e or 9p. Further, H2AX variant histone (γ-H2AX), which was responsible for DNA damage, was also not affected when PC-9 were treated with 9e or 9p.
(§5) Protein expression levels were measured by western blot. PC-9 cells were cultured in 12-well plates and different concentrations (0, 2, 4, 8µM) of 9e and 9p were added for 48 h. Proteins were extracted from whole cells using radioimmunoprecipitation assay (RIPA). Buffer containing protease/phosphatase inhibitor cocktail (CST). Sodium dodecyl sulfate (10-15%) polyacrylamide gel electrophoresis and nitrocellulose membranes (Millipore) were used to separate and collect proteins. Antibodies used include, LC3 (3868s, CST), Caspase3 (9662, CST), cyclin D (2922s, CST), cyclin E (20808s, CST), γ-H2AX (9718s, CST), and β-actin (4967s, CST).

[9] = system: CyclinD; assay: Western blot of CyclinD in PC-9 cells; details: PC-9, 0, 2, 4, 8 µM, 48 h
Description: as §4, §5

[10] = system: CyclinE; assay: Western blot of CyclinE in PC-9 cells; details: PC-9, 0, 2, 4, 8 µM, 48 h
Description: as §4, §5

[11] = system: β-catenin; assay: Western blot of β-catenin in PC-9 cells; details: PC-9, 0, 2, 4, 8 µM, 48 h
Description: as §4, §5

**Q.** Which “Cell viability (100%)” value [1] does the source give for COc1c2n(cc(C(=O)Nc3cccc(-c4cn(-c5cccc([N+](=O)[O-])c5C)nn4)c3)c1=O)C[C@@H]1OCC[C@@H](C)N1C2=O [Compound 9e] here?
**A.** Its value is 24.05%.

**Q.** What about the IC50 [1] of the same compound?
**A.** The IC50 was 3.83 ± 0.73 µM.

**Q.** What about the “Cell viability (100%)” value [2] of the same compound?
**A.** Its value is 30.94%.

**Q.** What about the IC50 [2] of the same compound?
**A.** The IC50 was 11.8 ± 2.31 µM.

**Q.** What about the “plate clone formation (cell proliferation)” value [3] of the same compound?
**A.** The value was “anti-proliferative activity against cell lines PC9 and H460 in a dose-dependent manner”.

**Q.** What about the cell apoptosis ([4]; H460, 8 µM and 16 µM) of the same compound?
**A.** The cell apoptosis was “significant increased apoptosis”.

**Q.** What about the “effect on cell cycle” value ([5]; PC-9, 4 µM) of the same compound?
**A.** Its value is “moderate effects on cell cycle”.

**Q.** And the “effect on cell cycle” value ([5]; PC-9, 8 µM)?
**A.** The value was “decreased G0/G1 phase and increased S and G2/M phase”.

**Q.** And the “effect on cell cycle” value [6]?
**A.** The value was “increased G2/M phase and had little influences on G0/G1 or S phase”.

**Q.** What about the ROS generation [7] of the same compound?
**A.** The ROS generation was “significantly increased”.

**Q.** What about the Caspase3 expression [8] of the same compound?
**A.** Its Caspase3 expression is “not changed”.

**Q.** And the CyclinD expression [9]?
**A.** Its CyclinD expression is “not affected”.

**Q.** And the CyclinE expression [10]?
**A.** The CyclinE expression was “not affected”.

**Q.** What about the β-catenin expression [11] of the same compound?
**A.** The β-catenin expression was “not affected”.

**Q.** How did the “Cell viability (100%)” value [1] turn out when COc1c2n(cc(C(=O)Nc3cccc(-c4cn(-c5cccc(C(F)(F)F)c5)nn4)c3)c1=O)C[C@@H]1OCC[C@@H](C)N1C2=O [Compound 9p] was run?
**A.** Its value is 2.11%.

**Q.** And the IC50 [1]?
**A.** Its IC50 is 3.17 ± 0.18 µM.

**Q.** What about the “Cell viability (100%)” value [2] of the same compound?
**A.** Its value is 5.63%.

**Q.** And the IC50 [2]?
**A.** Its IC50 is 10.7 ± 0.48 µM.

**Q.** And the “plate clone formation (cell proliferation)” value [3]?
**A.** The value was “anti-proliferative activity against cell lines PC9 and H460 in a dose-dependent manner”.

**Q.** And the cell apoptosis ([4]; H460, 4 µM, 8 µM and 16 µM)?
**A.** Its cell apoptosis is “significantly increased apoptosis”.

**Q.** What about the “effect on cell cycle” value ([5]; PC-9, 4 µM and 8 µM) of the same compound?
**A.** The value was “induced an S and G2/M cell cycle arrest”.

**Q.** What about the “effect on cell cycle” value [6] of the same compound?
**A.** The value was “significantly decrease the S phase”.

**Q.** What about the ROS generation [7] of the same compound?
**A.** The ROS generation was “significantly increased”.

**Q.** And the Caspase3 expression [8]?
**A.** The Caspase3 expression was “not changed”.

**Q.** What about the CyclinD expression [9] of the same compound?
**A.** Its CyclinD expression is “not affected”.

**Q.** What about the CyclinE expression [10] of the same compound?
**A.** Its CyclinE expression is “not affected”.

**Q.** And the β-catenin expression [11]?
**A.** The β-catenin expression was “not affected”.
